From US20200405716A1, “HISTONE DEACETYLASE 6 (HDAC6) BIOMARKERS IN MULTIPLE MYELOMA” (Acetylon Pharmaceuticals, Inc., priority 2013, published 2020)

What was measured:
Format in all cases: cell-based, Human
[1] = tested on: multiple myeloma cell line MM.1S; experiment: microRNA and mRNA array, treated MM.1S cells; settings: 37° C., 6 hours
From the text: The Human miRNome Complete RT^2 miRNA PCR Array profiles the expression of the 752 most abundantly expressed and best characterized microRNA (miRNA) sequences in the Human miRNA genome (miRNome), as annotated by the Sanger miRBase Release 14. The Illumina Gene Expression Beadchip content provides genome-wide transcriptional coverage of well-characterized genes, gene candidates, and splice variants. Each array on the BeadChip targets more than 47,000 probes derived from the National Center for Biotechnology Information Reference Sequence (NCBI) RefSeq Release 38 (Nov. 7, 2009) and other sources. Compound D was incubated with a multiple myeloma cell line (MM.1S or RPMI8226) or a stromal cell line (HS-5) at 37° C. for 6 hours. The concentration of Compound D was 2 uM. Alternatively, Compound A was incubated with the multiple myeloma cell line MM.1S at 37° C. for 6 hours. Total RNA was extracted from the treated cells (e.g., MM.1S cells and RPMI8226 cells) and analyzed using microRNA array. […] The numbers shown are normalized to the expression level of the corresponding biomarker in control cells. For example, the expression level of biomarker hsa-miR-346 was 0.26, which means that the expression level of this biomarker in treated MM.1S cells was 26% of the expression level of this biomarker in MM.1S control cells. Conversely, the expression level of biomarker hsa-miR-145 was 3.09, which means that the expression level of this biomarker in treated MM.1S cells was 3.09 fold of the expression level of this biomarker in MM.1S control cells.

stromal cell line HS-5 = experiment: microRNA and mRNA array, treated stromal HS-5 cells; settings: Compound D 2 uM, 37° C., 6 hours
From the text: (§1) The Human miRNome Complete RT^2 miRNA PCR Array profiles the expression of the 752 most abundantly expressed and best characterized microRNA (miRNA) sequences in the Human miRNA genome (miRNome), as annotated by the Sanger miRBase Release 14.
(§2) The Illumina Gene Expression Beadchip content provides genome-wide transcriptional coverage of well-characterized genes, gene candidates, and splice variants. Each array on the BeadChip targets more than 47,000 probes derived from the National Center for Biotechnology Information Reference Sequence (NCBI) RefSeq Release 38 (Nov. 7, 2009) and other sources.
(§3) Compound D was incubated with a multiple myeloma cell line (MM.1S or RPMI8226) or a stromal cell line (HS-5) at 37° C. for 6 hours. The concentration of Compound D was 2 uM.
(§4) Total RNA was extracted from the treated cells (e.g., MM.1S cells and RPMI8226 cells) and analyzed using microRNA array.
(§5) The numbers shown are normalized to the expression level of the corresponding biomarker in control cells. For example, the expression level of biomarker hsa-miR-346 was 0.26, which means that the expression level of this biomarker in treated MM.1S cells was 26% of the expression level of this biomarker in MM.1S control cells. Conversely, the expression level of biomarker hsa-miR-145 was 3.09, which means that the expression level of this biomarker in treated MM.1S cells was 3.09 fold of the expression level of this biomarker in MM.1S control cells.

[2] = tested on: multiple myeloma cell line RPMI8226; experiment: microRNA and mRNA array, treated RPMI8226 cells; settings: RPMI-8226 cells, Compound D 2 uM, 37° C., 6 hours
From the text: as §1, §2, §3, §4, §5

[3] = Compound A (concentration not given)

Structure (SMILES): O=C(CCCCCCNC(=O)c1cnc(N(c2ccccc2)c2ccccc2)nc1)NO [Compound A, 2-(diphenylamino)-N-(7-(hydroxyamino)-7-oxoheptyl) pyrimidine-5-carboxamide]
- expression of small non-coding RNA SEQ ID NO: 26 normalized to control cells [1, 3]: 0.74
- expression of small non-coding RNA SEQ ID NO: 27 normalized to control cells [1, 3]: 0.74

Structure (SMILES): O=C(NO)c1cnc(NC2(c3ccccc3)CC2)nc1 [Compound D, N-hydroxy-2-((1-phenylcyclopropyl)amino)pyrimidine-5-carboxamide]
- HIF-1a expression level in treated cells as % of the expression level in control cells (stromal cell line HS-5): 49%
- PTPRU expression level in treated cells, fold of the expression level in control cells (stromal cell line HS-5): 2.52 fold
- expression of mRNA SEQ ID NO: 24 (HIF-1a) normalized to control cells (stromal cell line HS-5): 0.49
- expression of mRNA SEQ ID NO: 25 (PTPRU) normalized to control cells (stromal cell line HS-5): 2.52
- expression of miRNA SEQ ID NO: 10 normalized to control cells (stromal cell line HS-5): 0.26
- expression of miRNA SEQ ID NO: 11 normalized to control cells (stromal cell line HS-5): 0.15
- expression of miRNA SEQ ID NO: 19 normalized to control cells (stromal cell line HS-5): 6.64
- expression of miRNA SEQ ID NO: 20 normalized to control cells (stromal cell line HS-5): 21.71
- expression of miRNA SEQ ID NO: 21 normalized to control cells (stromal cell line HS-5): 54.35
- expression of miRNA SEQ ID NO: 22 normalized to control cells (stromal cell line HS-5): 5.95
- expression of miRNA SEQ ID NO: 23 normalized to control cells (stromal cell line HS-5): 3.52
- expression of miRNA SEQ ID NO: 1 (hsa-miR-346) normalized to control cells ([1]; Compound D 2 uM): 0.26
- expression of miRNA SEQ ID NO: 2 normalized to control cells ([1]; Compound D 2 uM): 0.33
- expression of miRNA SEQ ID NO: 3 normalized to control cells ([1]; Compound D 2 uM): 0.23
- expression of miRNA SEQ ID NO: 4 normalized to control cells ([1]; Compound D 2 uM): 0.27
- expression of miRNA SEQ ID NO: 5 normalized to control cells ([1]; Compound D 2 uM): 0.31
- expression of miRNA SEQ ID NO: 12 (hsa-miR-145) normalized to control cells ([1]; Compound D 2 uM): 3.09
- expression of miRNA SEQ ID NO: 13 normalized to control cells ([1]; Compound D 2 uM): 3.53
- expression of miRNA SEQ ID NO: 14 normalized to control cells ([1]; Compound D 2 uM): 3.19
- expression of miRNA SEQ ID NO: 15 normalized to control cells ([1]; Compound D 2 uM): 3.29
- expression of miRNA SEQ ID NO: 16 normalized to control cells ([1]; Compound D 2 uM): 4.68
- expression of small non-coding RNA SEQ ID NO: 26 normalized to control cells ([1]; Compound D 2 uM): 0.46
- expression of small non-coding RNA SEQ ID NO: 27 normalized to control cells ([1]; Compound D 2 uM): 0.45
- expression of miRNA SEQ ID NO: 2 normalized to control cells [2]: 0.09
- expression of miRNA SEQ ID NO: 6 normalized to control cells [2]: 0.28
- expression of miRNA SEQ ID NO: 7 normalized to control cells [2]: 0.25
- expression of miRNA SEQ ID NO: 8 normalized to control cells [2]: 0.33
- expression of miRNA SEQ ID NO: 9 normalized to control cells [2]: 0.24
- expression of miRNA SEQ ID NO: 17 normalized to control cells [2]: 3.22
- expression of miRNA SEQ ID NO: 18 normalized to control cells [2]: 3.31
